Values of other authors, collected in patent publication US11220530B2, “Nanospheres of SEC14-like proteins and cognate ligands” (UNIVERSITÄT BERN, priority 2016, dated 2022).

Molecular target: Cellular retinaldehyde-binding protein (CRALBP) (Bos taurus, UniProt P10123)
Details: for Kd: cited from Saari and Bredberg, J Biol Chem 1987, read-out: Kd (affinity for CRALBP)

Cellular retinaldehyde-binding protein (CRALBP), sequence (P10123 whole entry): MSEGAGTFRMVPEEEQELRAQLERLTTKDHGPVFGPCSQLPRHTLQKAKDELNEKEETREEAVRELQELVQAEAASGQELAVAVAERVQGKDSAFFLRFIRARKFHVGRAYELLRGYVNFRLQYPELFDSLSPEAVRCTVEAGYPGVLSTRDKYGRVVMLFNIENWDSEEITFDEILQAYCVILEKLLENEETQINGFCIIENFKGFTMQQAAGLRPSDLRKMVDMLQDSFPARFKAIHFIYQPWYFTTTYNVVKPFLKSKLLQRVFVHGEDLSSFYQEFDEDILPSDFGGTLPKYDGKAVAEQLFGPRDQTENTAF

Row | Kd [nM] | binding to CRALBP (same cited study) | Structure (SMILES)
1 | 60 |  | CC1=C(/C=C/C(C)=C/C=C\C(C)=C\CO)C(C)(C)CCC1 [11-cis-retinol]
2 | 20 |  | CC1=C(/C=C/C(C)=C/C=C/C(C)=C/C=O)C(C)(C)CCC1 [11-cis-retinal]
3 | 53 |  | CC1=C(/C=C/C(C)=C\C=C\C(C)=C\C=O)C(C)(C)CCC1 [9-cis-retinal]
4 |  | does not bind | CC1=C(/C=C/C(C)=C/C=C/C(C)=C/C=O)C(C)(C)CCC1 [13-cis]
